molecular target: ALK tyrosine kinase receptor (Homo sapiens, UniProt Q9UM73); assay: Inhibition Assay: 1× Kinase Buffer 50 mM HEPES. pH 7.5 0.0015% Brij-35 10 mM MgCl2 2 mM DTT 2) stop buffer 100 mM HEPES, pH 7.5 0.015% Brij-35 0.2% Coating Reagent #3 50 mM EDTAPrepare a Compound Solution to be Tested Step 2.1 Dilute the compound to 50× of the final desired highest inhibitor concentration in reaction by 100% DMSO. Transfer 100 μl of this compound dilution to a well in a 96-well plate. For example, if desired highest inhibitor concentration is 1 μM, then prepare 50 μM of compound DMSO solution in this step.
Sequence (Q9UM73 whole entry): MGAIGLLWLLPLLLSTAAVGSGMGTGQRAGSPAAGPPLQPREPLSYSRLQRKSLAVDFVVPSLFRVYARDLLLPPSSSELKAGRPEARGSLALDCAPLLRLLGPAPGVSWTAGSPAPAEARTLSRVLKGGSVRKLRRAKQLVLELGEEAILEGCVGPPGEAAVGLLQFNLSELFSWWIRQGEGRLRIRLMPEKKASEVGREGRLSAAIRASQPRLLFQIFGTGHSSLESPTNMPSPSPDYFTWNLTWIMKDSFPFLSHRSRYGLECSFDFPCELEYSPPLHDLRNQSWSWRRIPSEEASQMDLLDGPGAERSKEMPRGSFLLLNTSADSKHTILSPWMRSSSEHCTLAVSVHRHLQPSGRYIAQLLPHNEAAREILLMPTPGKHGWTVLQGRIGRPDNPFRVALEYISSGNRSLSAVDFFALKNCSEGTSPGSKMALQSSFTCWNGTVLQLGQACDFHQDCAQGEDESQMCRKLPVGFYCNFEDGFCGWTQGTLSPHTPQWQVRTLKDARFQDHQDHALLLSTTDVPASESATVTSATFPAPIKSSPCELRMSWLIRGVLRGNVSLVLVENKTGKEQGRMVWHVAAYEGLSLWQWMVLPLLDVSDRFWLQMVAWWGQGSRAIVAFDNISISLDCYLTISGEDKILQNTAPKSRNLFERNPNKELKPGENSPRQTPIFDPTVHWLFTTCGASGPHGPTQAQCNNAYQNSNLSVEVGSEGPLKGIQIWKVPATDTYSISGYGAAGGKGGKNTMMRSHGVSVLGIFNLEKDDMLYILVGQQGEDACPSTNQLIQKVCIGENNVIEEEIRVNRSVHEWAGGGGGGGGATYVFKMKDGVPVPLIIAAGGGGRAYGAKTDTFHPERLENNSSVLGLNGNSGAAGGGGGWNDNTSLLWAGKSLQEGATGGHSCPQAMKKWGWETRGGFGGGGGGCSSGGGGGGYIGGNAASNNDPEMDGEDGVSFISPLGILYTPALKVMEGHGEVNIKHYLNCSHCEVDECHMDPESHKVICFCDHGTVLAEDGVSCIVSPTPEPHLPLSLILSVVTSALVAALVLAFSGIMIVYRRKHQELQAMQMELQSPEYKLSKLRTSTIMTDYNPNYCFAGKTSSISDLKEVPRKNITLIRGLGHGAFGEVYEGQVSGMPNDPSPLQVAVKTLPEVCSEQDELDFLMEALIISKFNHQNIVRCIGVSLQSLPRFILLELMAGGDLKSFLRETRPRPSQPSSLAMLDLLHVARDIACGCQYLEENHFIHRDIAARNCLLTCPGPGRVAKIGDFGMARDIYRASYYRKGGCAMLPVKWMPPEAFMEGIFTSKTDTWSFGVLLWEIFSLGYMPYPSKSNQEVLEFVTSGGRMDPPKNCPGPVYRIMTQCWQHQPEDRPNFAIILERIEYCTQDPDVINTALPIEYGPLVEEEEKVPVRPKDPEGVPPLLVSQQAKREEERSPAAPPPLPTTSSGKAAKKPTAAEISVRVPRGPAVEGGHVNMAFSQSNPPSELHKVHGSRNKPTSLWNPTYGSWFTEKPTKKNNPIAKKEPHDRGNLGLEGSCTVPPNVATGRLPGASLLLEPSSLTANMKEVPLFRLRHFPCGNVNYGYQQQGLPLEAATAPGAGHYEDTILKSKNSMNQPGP

SMILES | IC50
COc1cc(N2CCC(N(C)C)CC2)ccc1Nc1ncc(Cl)c(Nc2ccsc2S(=O)(=O)C(C)C)n1 | < 1 nM
COc1cc(N2CCC(N(C)C)CC2)ccc1Nc1ncc(Cl)c(Nc2ccccc2S(=O)(=O)C(C)C)n1 | < 1 nM
COc1cc(N2CCN(C)CC2)ccc1Nc1ncc(Cl)c(Nc2ccccc2S(=O)(=O)C(C)C)n1 | < 1 nM
CC(C)S(=O)(=O)c1ccccc1Nc1nc(Nc2ccc(N3CCC(N(C)C)CC3)cc2OC(F)F)ncc1Cl | < 1 nM
COc1cc(N2CCC(N3CCOCC3)CC2)ccc1Nc1ncc(Cl)c(Nc2ccsc2S(=O)(=O)C(C)C)n1 | < 1 nM

Next, values leading:

IC50 | SMILES
< 1 nM | COc1cc(N2CCC(N3CCC(N(C)C)CC3)CC2)ccc1Nc1ncc(Cl)c(Nc2ccccc2S(=O)(=O)C(C)C)n1
< 1 nM | COc1cc(N2CCC(O)CC2)ccc1Nc1ncc(Cl)c(Nc2ccsc2S(=O)(=O)C(C)C)n1
< 1 nM | COc1cc(N2CCOCC2)ccc1Nc1ncc(Cl)c(Nc2ccsc2S(=O)(=O)C(C)C)n1
< 1 nM | COc1cc(N2CCN(C)CC2)ccc1Nc1ncc(Cl)c(Nc2ccsc2S(=O)(=O)C(C)C)n1
